Data on 1 compound can be found in patent publication US20240407363A1 (priority 2021, published 2024).

Entries after “also recorded” stand apart in the source; their conditions may differ.

In one test the test system is X. perforans GEV-485. As to the kind of experiment: Greenhouse in planta experiments, hexanoic acid soil drench, tomato bacterial spot ('Bonnie Best'). The test is classed as in vivo. As to the method:
Hexanoic acid (Hx) (>99%, Sigma Aldrich) was tested for its effect on the management of bacterial leaf spot of tomato. Stock solutions of Hx (1.0×10^4 mg/L) were prepared with sterile distilled water (SDW) and stored at 4° C. for further dilutions. Copper treatment suspensions were prepared using Kocide® 3000 (DuPont, Wilmington DE) that contains 30% metallic Cu in the form of copper hydroxide [Cu(OH)2]. For greenhouse experiments, Kocide® 3000 at the rate of 2.1 g/L and Penncozeb 75DF (United Phosphorus Inc., King of Prussia, PA) at the rate of 1.2 g/L in SDW were prepared.
The plants were then moved to a growth chamber with temperature at 28° C., 12 h photoperiod and 80% relative humidity. Fifty mL of Hx at the tested rates were applied to 3-4 weeks old plants by soil drench, 4 and 2 days prior to bacterial inoculation to prime the plants and induce basal plant defense. Kocide® 3000 and a mixture of Kocide® 3000+Penncozeb® were sprayed on the tomato plants until runoff and allowed to air dry for 4 h before bacterial inoculation. Three plants were sprayed with SDW only, as a negative control. […] Disease severity and phytotoxicity were evaluated every other day using the Horsfall-Barratt scale (Horsfall and Barratt, 1945), starting from 3 days up to 20 days post inoculation. […]

For test [1], the system named is X. perforans strain GEV-485. As to the kind of experiment: In vitro antibacterial activity at different time points (viable colony counts). The class given is cell-based. On the procedure: X. perforans strain GEV-485, a copper-resistant strain, was used in this study to evaluate the antibacterial activity of Hx. Working cultures of GEV-485 were retrieved from −80° C. storage vials containing bacterial suspensions in 30% glycerol (v/v). Bacterial cells were taken from the storage, streaked on nutrient agar (NA; Difco™ Sparks, MD) plates and incubated for 48 h at 28° C. and single colonies were picked and streaked on NA plates to ensure bacterial purity for further cultures. NA amended with copper (II) sulfate pentahydrate (CuSO4·5H2O) (Fisher Scientific-Hampton, NH) at 20 ppm, was used as copper tolerance selective agent. To prepare the bacterial inoculum, a single bacterial colony was streaked on NA and incubated for 24 h at 28° C. From those plates, loops of bacterial cells were collected and resuspended in SDW amended with 0.01 M MgSO4. The bacterial concentration was adjusted to ˜5.0×10^8 colony-forming units (CFU)/mL based on an optical density (OD) of 0.3 at 600 nm. The in vitro studies were conducted to determine the minimum inhibitory concentration (MIC), minimum bactericidal concentration (MBC), and the antibacterial activity at different time points.
For the antibacterial activity study of Hx at different time points, the bacterial suspension was prepared as described above. […] After incubation, total viable colonies for each tube were counted. […]

The test system of a further test is Xanthomonas perforans. As to the kind of experiment: Field trials on hexanoic acid, bacterial spot of tomato (cv. Red bounty). The test is classed as in vivo. Conditions: for AUDPC / BS last rating of bacterial spot severity / YIELD: cv. Red bounty, ManKocide 2.1 mg/ml foliar spray, hexanoic acid 0.5 mg/ml drench (50 ml/plant). As to the method: Table 3 notes: Data from 2 repeated field experiments: BS1/BS2=bacterial disease severity in Exp. 1/Exp. 2; AUDPC1/AUDPC2=area under the disease progress curve in Exp. 1/Exp. 2; YIELD 1/YIELD 2=fruit yield (Kg/plant) in Exp/1/Exp.2; KOCIDER=Kocide® 3000 (Cu bactericide) at 1.75 lb/acre (=2.1 mg/mL) by sprays; MANKO=Mankocide® (Cu+mancozeb) at 1.75 lb/acre by foliar spray; HEXANO=hexanoic acid at 0.5 mg/mL (=500 mg/L) by root drench weekly for a total of 8 weeks.
It is noted regarding the table above that: (1) data in this table were from 2 repeated field experiments, whereas those in FIG. 9 were from a greenhouse preliminary test; and (2) in the field experiments, Hx at 500 mg/L was weekly applied as soil drench for a total of 8 weeks. In the greenhouse test (FIG. 9), Hx at 512 mg/L was applied only one time as soil drench at 1, 3, or 7 days prior to the bacterial inoculation, respectively.
Tomato seedlings were transplanted in fall for the first trial (trial 1) and spring for the second trial (trial 2). Treatments were started about two weeks after transplanting following weekly applications for a total of eight weeks. Tomato plants were inoculated with the pathogen Xanthomonas perforans (1-5×10^6 cfu/ml) the following day in the afternoon after the third treatment. Disease severity was rated weekly when bacterial spot symptoms were observed, and area under the disease progress curve (AUDPC) was calculated. Tomato fruit were harvested two to three times for each trial and graded according to the USDA standard. Total fruit yield in each treatment and the untreated control (CK) was subjected to statistical analysis using SAS (version 9.2, SAS Institute Inc., Cary, NC, USA). Disease severity of last rating and AUDPC from each trial were analyzed and presented.
Hexanoic acid at 0.5 mg/ml was drenched (50 ml/plant) to the base of each plant. This chemical was evaluated in two independent trials. Tomato cultivar was ‘Red bounty’.

The mark [2] stands for this setting: 0.5 mg/ml applied as root drench (50 ml/plant).
Setting [3] is: Experiment 1, Kocide 3000 1.75 lb/acre (=2.1 mg/mL) sprays, Mankocide 1.75 lb/acre foliar spray, hexanoic acid 0.5 mg/mL root drench weekly for 8 weeks.
Where [4] appears, read: Experiment 2, Kocide 3000 1.75 lb/acre (=2.1 mg/mL) sprays, Mankocide 1.75 lb/acre foliar spray, hexanoic acid 0.5 mg/mL root drench weekly for 8 weeks.

As to `CCCCCC(=O)O` [Hexanoic acid, hexanoic acid], the “bacterial spot disease (preliminary AUDPC, FIG. 9) compared to the control (UTC)” value in the test with X. perforans GEV-485 (512 mg/L applied only once as soil drench 1, 3, and 7 days prior to the bacterial inoculation) is recorded as “did not appear to significantly reduce the bacterial spot disease”. The “disease severity (AUDPC, FIG. 10) compared to the control (UTC)” value with X. perforans GEV-485 (different treatment concentrations, application two days prior to the bacterial inoculation, two-week rating period) is reported as “significantly (P<0.05) lower disease severity; also recorded: statistically significant (p<0.05) lower disease severity”. Besides, the “colony growth after treatment” value in test [1] (at 256 mg/L or higher concentrations, after 4 hours of treatment) was “no colonies grew”. For the same compound, the “bactericidal effect over time” value in test [1] (higher concentrations of hexanoic acid) was “bactericidal effects within an hour”. Further, in the test on Xanthomonas perforans (setting [2]), the “effect on disease reduction compared to ManKocide at the label rate of 2.1 mg/ml” value is “even better than ManKocide®”; the “marketable tomato fruit yield compared to controls” value is “greater than the untreated control (CK) and ManKocide® in one of the two independent trials”. In the test with Xanthomonas perforans (0.5 mg/ml applied as root drench (50 ml/plant), Homestead, FL 2020-2021), the “bacterial spot disease severity and AUDPC compared to the untreated control (CK)” value was “significantly (P<0.05) reduced bacterial spot disease severity at the last rating and the overall disease progress”. Besides, in the test with Xanthomonas perforans (setting [3]), the “AUDPC1 area under the disease progress curve” value stood at 95.93 c, the “BS1 bacterial disease severity” value is 10.8 d % and the YIELD1 fruit yield amounted to 8.83 a Kg/plant. Also, in the test on Xanthomonas perforans (setting [4]), the “AUDPC2 area under the disease progress curve” value is 390.1 c, the “BS2 bacterial disease severity” value was determined as 41.3 c % and the YIELD2 fruit yield was 2.76 a Kg/plant. Further, in the test on Xanthomonas perforans (Trial 1), the AUDPC stood at 95.9 c, the “BS last rating of bacterial spot severity” value was 10.8 c % and the YIELD is 8.83 a kg/plant. For the same compound, in the test on Xanthomonas perforans (Trial 2), the AUDPC was determined as 390.1 c, the “BS last rating of bacterial spot severity” value worked out at 41.3 b % and the YIELD is recorded as 2.76 a kg/plant.
